Publication PMC11123991, “Novel 9-Methylanthracene Derivatives as p53 Activators for the Treatment of Glioblastoma Multiforme” (Molecules, 2024)

What was measured:
[1] = test system: human glioblastoma cell line U87; test: MTT antiproliferative assay in U87 cells; assay type: cell-based; settings: for inhibition at 10 µM: read-out: U87 (% Inhib. @ 10 µM); for IC50: mean ± SD (n = 3); for fold decrease in anti-glioma activity: relative to 14a–14c
Description: (§1) U87, Hela, MCF-7, and HHL-5 cells were provided by Chinese Academy of Medical Sciences (Beijing, China). The cancer cells were cultured in DMEM media containing 10% heat-inactivated fetal calf serum. All cells were incubated at 37 °C in a 5% CO2 humidified atmosphere and harvested in the exponential growth phase for assays.
(§2) Cells were seeded in a 96-well plate and treated with the test substance at the desired concentration for 72 h. In cytotoxicity experiments, cells were treated with 10 µM of the test compound or 1 µM XI-011 and doxorubicin as positive controls. DMSO (1%) was used as a negative control. In the IC50 analysis, doxorubicin, XI-011, 13d, 13e, 14a, 14b, and, 14n were applied to HHL-5 at 50, 25, 10, 5, 2.5, 1.25, 0.625, 0.3125, and 0.15625 µM and U87 cells at 10, 7.5, 5, […], 1.25, 0.625, 0.3125, and 0.15625 µM, whereas 30, 10, 3, 0.5, and 0.1 µM were applied to Hela and MCF-7 cells. Treated cells were incubated with an MTT solution for 2 h and then with DMSO to dissolve the crystals. Absorbance was determined at 570 nm using a microplate reader (BioTek, Seattle, DC, USA). IC50 values were calculated using the Hill model in GraphPad Prism 8.0.2 software.

[2] = test system: human cervical cancer cell line HeLa; test: MTT antiproliferative assay in HeLa cells; assay type: cell-based; settings: for IC50: Homo sapiens, 72 h, MTT, mean ± SD (n = 3)
Description: as §1, §2

[3] = test system: human breast cancer cell line MCF-7; test: MTT antiproliferative assay in MCF-7 cells; assay type: cell-based; settings: MCF7, 72 h, mean ± SD (n = 3)
Description: as §1, §2

[4] = test system: HHL-5 human normal cell line; test: MTT cytotoxicity assay in normal HHL-5 cells; assay type: cell-based; settings: for IC50: Homo sapiens, HHL-5, normal cell line, 72 h, MTT, mean ± SD (n = 3)
Description: as §1, §2

[5] = test system: MDM4; test: Western blot of MDM4 expression in U87 cells; assay type: cell-based, human; settings: U87, 24 h, 0.5, 1 and 2 µM
Description: (§3) Protein levels in U87 cells treated with test compound 13e (0.5, 1, and 2 µM) for 24 h were measured by Western blot analysis as described previously. Briefly, after 13e treatment, cells were lysed in RIPA buffer. Proteins were separated by 8% SDS-PAGE and transferred to a PVDF membrane (Millipore, Billerica, MA, USA). The membrane was incubated with an anti-MDM4 antibody (A300-287A, Bethyl Laboratories, Montgomery, TX, USA), anti-p53 antibody (sc-126, Santa Cruz Biotechnology, Inc., Dallas, TX, USA), or anti-GAPDH antibody (AG019, Beyotime, Shanghai, China) followed by an HRP-linked secondary antibody (A0216, Beyotime) for 2 h. ECL reagent was used for chemiluminescent development. Densitometric analysis of protein bands was performed using ImageJ V.1.8.0 software.

[6] = test system: U87 cells; test: Flow cytometric apoptosis analysis in U87 cells; assay type: cell-based, human; settings: 24 h
Description: Reducing MDM4 expression restores the p53 function and increases apoptotic cells. The apoptotic effects of compound 13e were determined in U87 cells by flow cytometry. […] 13e induced 21% apoptosis at 1 µM, which was slightly lower than the 23% apoptosis induced by XI-011. At 2 µM 13e, apoptosis was up to 25.9%. […] The mechanism by which 13e induces apoptosis in U87 cells may be related to its ability to downregulate MDM4 expression and stabilize p53 protein.

[7] = test system: p53; test: Western blot of p53 expression in U87 cells; assay type: cell-based, human; settings: U87, 24 h, 0.5, 1 and 2 µM
Description: as §3

[8] = test system: U87 cells; test: Flow cytometric cell cycle analysis in U87 cells; assay type: cell-based, human; settings: U87, 24 h, 0.5, 1 and 2 µM
Description: Cells were cultured for 24 h in a 6-well plate, and then the test compound (0.5, 1, and 2 µM) was added to the culture medium. After treatment for 24 h, the cells were harvested and fixed at 4 °C overnight in an ethanol solution (80%). The cells were washed with PBS and stained with a PI solution ([…] in PBS). After 30 min, the cells were subjected to flow cytometry (C6; BD, Franklin Lakes, NJ, USA). The recorded cell fluorescence was used to analyze the cell cycle distribution.

[9] = test system: MDM4; settings: Figure 1, representative MDM4 inhibitors; reference not given; cited from earlier work
[10] = Homo sapiens, U-87 MG, 72 h, 10 µM, 72 h, MTT, triplicates
[11] = Homo sapiens, U-87 MG, 72 h, MTT

Cc1ccc(CSC(=N)N)c2ccccc12 [12a]
inhibition at 10 µM [1, 10]: 15.2%

N=C(N)SCc1cccc2ccccc12 [12b]
inhibition at 10 µM [1, 10]: 9%

Cc1ccc(CSC(=N)N)cc1 [12c]
inhibition at 10 µM [1, 10]: 11.8%

N=C(N)SCc1ccc([N+](=O)[O-])cc1 [12d]
inhibition at 10 µM [1, 10]: 14.8%

N=C(N)SCc1ccc2ccccc2c1 [12e]
inhibition at 10 µM [1, 10]: 1.5%

Cc1ccc(CSC(=N)NN)c2ccccc12 [12f]
inhibition at 10 µM [1, 10]: 13.1%

N=C(NN)SCc1cccc2ccccc12 [12g]
inhibition at 10 µM [1, 10]: 14.5%

CNC(=N)SCc1ccc(C)c2ccccc12 [12h]
inhibition at 10 µM [1, 10]: 9.9%

CC(=O)NC(=N)SCc1ccc(C)c2ccccc12 [12i]
inhibition at 10 µM [1, 10]: 2.7%

CC(=O)NC(=N)SCc1ccc(C)cc1 [12j]
inhibition at 10 µM [1, 10]: 6.8%

N=C(NN)SCc1ccc2ccccc2n1 [12k]
inhibition at 10 µM [1, 10]: 10.7%

CNC(=N)SCc1ccc2ccccc2n1 [12l]
inhibition at 10 µM [1, 10]: 11.3%

Cc1c2ccccc2c(CSC(=N)NN)c2ccccc12 [13a]
inhibition at 10 µM [1, 10]: 57.9% | fold more potency than 12f ([1]; U87 inhibition rate at 10 µM): approximately 4 fold

CC(=O)NC(=N)SCc1c2ccccc2c(C)c2ccccc12 [13b]
inhibition at 10 µM [1, 10]: 19.3%

Cc1c2ccccc2c(CSC(=N)NC(=N)N)c2ccccc12 [13c]
inhibition at 10 µM [1, 10]: 35.4%

CNC(=N)SCc1c2ccccc2c(C)c2ccccc12 [13d]
IC50 [2]: 5660 ± 290 nM | IC50 ([1]; 72 h, MTT): 1620 ± 20 nM | inhibition at 10 µM [1, 10]: 93.3% | IC50 [1, 11]: < 2000 nM | IC50 [3]: 4740 ± 200 nM | IC50 [4]: 850 ± 100 nM

Cc1c2ccccc2c(CSC(=N)N(C)N)c2ccccc12 [13e]
IC50 [2]: 1630 ± 250 nM | inhibition at 10 µM [1, 10]: 88.6% | MDM4 expression [5]: dose-dependent suppression of MDM4 expression | apoptosis ([6]; U87, 1 µM): 21% | apoptosis ([6]; U87, 2 µM): 25.9% | p53 protein expression [7]: significantly upregulated p53 protein expression | cell cycle effect [8]: arrested U87 cells in G2/M phase | IC50 [3]: 970 ± 110 nM | fold lesser toxicity to human normal HHL-5 cells than to U87 cells ([4]; HHL-5 IC50 versus U87 IC50): 2 fold | IC50 [4]: 1110 ± 80 nM

CC(C)=NNC(=N)SCc1c2ccccc2c(C)c2ccccc12 [13f]
inhibition at 10 µM [1, 10]: 65.1% | fold potency improvement in U87 cells compared with aryl-derived compounds ([1]; U87 inhibition rate at 10 µM): 3–4 fold

Cc1c2ccccc2c(CSc2ncc[nH]2)c2ccccc12 [13g]
inhibition at 10 µM [1, 10]: 41.2%

Cc1c2ccccc2c(CSC2=NC(=O)CC(=O)N2)c2ccccc12 [13h]
inhibition at 10 µM [1, 10]: 0.7%

CCOC(=O)c1cnc(SCc2c3ccccc3c(C)c3ccccc23)[nH]1 [13i]
inhibition at 10 µM [1, 10]: 31.2%

Cc1c2ccccc2c(CSC(=N)Nc2ccccc2)c2ccccc12 [13j]
inhibition at 10 µM [1, 10]: 13.3%

Cc1c2ccccc2c(CS/C(=N\c2ccccc2)Nc2ccccc2)c2ccccc12 [13k]
inhibition at 10 µM [1, 10]: 28.1%

CCCCCCNC(=N)SCc1c2ccccc2c(C)c2ccccc12 [13l]
inhibition at 10 µM [1, 10]: 86.7% | fold potency improvement in U87 cells compared with aryl-derived compounds ([1]; U87 inhibition rate at 10 µM): 3–4 fold

CCc1c2ccccc2c(CSC(=N)N)c2ccccc12 [14a]
IC50 [2]: 3640 ± 270 nM | IC50 ([1]; 72 h, MTT): 1240 ± 240 nM | inhibition at 10 µM [1, 10]: 79% | IC50 [1, 11]: < 2000 nM | IC50 [3]: 4560 ± 30 nM | IC50 [4]: 1510 ± 160 nM

CCc1c2ccccc2c(CSC(=N)NC)c2ccccc12 [14b]
IC50 [2]: 2660 ± 190 nM | IC50 ([1]; 72 h, MTT): 1350 ± 100 nM | inhibition at 10 µM [1, 10]: 94.7% | IC50 [1, 11]: < 2000 nM | IC50 [3]: 4550 ± 270 nM | IC50 [4]: 1620 ± 130 nM

CCc1c2ccccc2c(CSC(=N)N(C)N)c2ccccc12 [14c]
inhibition at 10 µM [1, 10]: 83.6%

CCc1c2ccccc2c(CSC(=N)NC(=N)N)c2ccccc12 [14d]
inhibition at 10 µM [1, 10]: 17.3% | fold decrease in anti-glioma activity ([1]; U87 inhibition rate at 10 µM): 3~4 fold

CCc1c2ccccc2c(CSC(=N)NC(C)=O)c2ccccc12 [14e]
inhibition at 10 µM [1, 10]: 19.3% | fold decrease in anti-glioma activity ([1]; U87 inhibition rate at 10 µM): 3~4 fold

CCCCCCNC(=N)SCc1c2ccccc2c(CC)c2ccccc12 [14f]
inhibition at 10 µM [1, 10]: 43.6% | fold decrease in anti-glioma activity ([1]; U87 inhibition rate at 10 µM): 3~4 fold

CCc1c2ccccc2c(CSC(=N)Nc2ccc(C(F)(F)F)cc2)c2ccccc12 [14g]
inhibition at 10 µM [1, 10]: 28% | fold decrease in anti-glioma activity ([1]; U87 inhibition rate at 10 µM): 3~4 fold

CCCc1c2ccccc2c(CSC(=N)N)c2ccccc12 [14h]
inhibition at 10 µM [1, 10]: 64.6%

CNC(=N)SCc1c2ccccc2cc2ccccc12 [14i]
U87 (% Inhib. @ 10 µM) ([1]; 10 µM, 72 h, MTT, triplicates): 76.4% | inhibition at 10 µM [1, 10]: 83%

N=C(NN)SCc1c2ccccc2cc2ccccc12 [14j]
inhibition at 10 µM [1, 10]: 11.8%

CC(C)=NNC(=N)SCc1c2ccccc2cc2ccccc12 [14k]
inhibition at 10 µM [1, 10]: 14.2%

CC(=O)NC(=N)SCc1c2ccccc2cc2ccccc12 [14l]
inhibition at 10 µM [1, 10]: 0.7%

N=C(N)SCc1c2ccccc2c(Br)c2ccccc12 [14m]
inhibition at 10 µM [1, 10]: 36.8%

CNC(=N)SCc1c2ccccc2c(Br)c2ccccc12 [14n]
IC50 [2]: 7740 ± 810 nM | fold reduction in anti-cervical cancer activity ([2]; bromo versus methyl and ethyl analogs (14a, 14b, XI-011)): 1–2 fold | IC50 ([1]; 72 h, MTT): 1840 ± 120 nM | inhibition at 10 µM [1, 10]: 86.5% | IC50 [1, 11]: < 2000 nM | IC50 [3]: 7600 ± 1370 nM | IC50 [4]: 1670 ± 160 nM

N=C(NN)SCc1c2ccccc2c(Br)c2ccccc12 [14o]
inhibition at 10 µM [1, 10]: 50.7%

N=C(NN)SCc1c2ccccc2nc2ccccc12 [14p]
inhibition at 10 µM [1, 10]: 19%

N=C(N)SCc1c2ccccc2nc2ccccc12 [14q]
inhibition at 10 µM [1, 10]: 12.5%

CCCCCCNC(=N)SCc1c2ccccc2nc2ccccc12 [14r]
inhibition at 10 µM [1, 10]: 2.1%

N=C(N)SC1c2ccccc2CCc2ccccc21 [14s]
inhibition at 10 µM [1, 10]: 6.9% | fold less potency than XI-011 ([1]; U87 inhibition rate at 10 µM): approximately 12 fold

COc1cccc2c1C(=O)c1c(O)c3c(c(O)c1C2=O)C[C@@](O)(C(=O)CO)C[C@@H]3O[C@H]1C[C@H](N)[C@H](O)[C@H](C)O1 [DOX, doxorubicin, reference compound]
IC50 [2]: 540 ± 50 nM | inhibition at 10 µM [1, 10]: 81.1% | IC50 [1, 11]: 440 ± 60 nM | IC50 [3]: 1320 ± 160 nM | IC50 [4]: 320 ± 20 nM

CCOc1cc(/C=C2\C(=O)N(c3ccccc3)N=C2C)cc(Cl)c1OCC(=O)OC [SJ-172550]
IC50 [9]: 870 nM

Cc1c2ccccc2c(CSC(=N)N)c2ccccc12 [XI-011, (10-methylanthracen-9-yl)methyl carbamimidothioate, reference compound]
IC50 [2]: 1510 ± 60 nM | inhibition at 10 µM [1, 10]: 91.8% | IC50 [1, 11]: 690 ± 20 nM | apoptosis ([6]; U87, 1 µM): 23% | IC50 [3]: 4870 ± 300 nM | IC50 [4]: 550 ± 30 nM
